Laboratory results reported in patent US10220112B2, “Cyclic antimicrobial pseudopeptides and uses thereof” (INSERM (INSTITUT NATIONAL DE LA SANTE ET DE LA RECHERCHE …, priority 2014, dated 2019).
Values after ≈ are worked out from the molar mass of the structure shown.

Legend:
E. coli strain ML-35p = test: E. coli outer and inner membrane permeabilization assays (nitrocefin / ONPG); format: cell-based, Escherichia coli
Description: E. coli outer and inner membrane permeability was determined by using E. coli strain ML-35p, which is lactose permease deficient. Nitrocefin, β-lactam is excluded by the outer cell membrane but, if it can pass this barrier thanks to the action of an AMP, it is then cleaved by the β-lactamase localized within the periplasm. ONPG, passes through lac permease and is cleaved by the cytoplasmic β-galactosidase, however with the ML-35p E. coli strain, ONPG is excluded unless permeabilization is achieved. The permeabilization assays were carried out with 100 μL of bacteria in MH broth at A600 nm 0.1-0.2 (10^7 cfu/mL, density necessary to detect degradation products). […] ONPG was added to a 100 μg/ml final concentration and substrate cleavage was monitored by light absorption measurements at 420 nm. Polymixin B at 8 μM against 10^7 cfu/mL was used as positive control. Bacterial suspension in MH broth plus substrates was used as negative control (untreated cells).

human erythrocytes = test: Lytic activity against human erythrocytes; format: cell-based; conditions: Table 2; for Human cells H50: maximal concentration 500 μM
Description: Human blood was collected from EFS (‘Etablissement Francais du Sang’) in Rennes (France). […] After centrifugation, the absorbance of the supernatant was measured at 414 nm. Three wells were positive controls, where the RBC were mixed with water 1% Triton X-100, in these wells the totality of RBC were hemolyzed and the release of hemoglobin was considered to be 100%. Three wells were negative controls, where the RBC were mixed with PBS buffer, in these wells hemolysis was considered to be null. The percentage of hemolysis in each test well was calculated by comparing with controls. For each peptide, bloods from three different donors were tested.

[1] = tested on: VISA strain S. aureus Mu 50; test: microbe, parasite or virus in culture; conditions: Staphylococcus aureus, read-out: VISA MIC
[2] = tested on: MRSA strain S. aureus N315; test: microbe, parasite or virus in culture; conditions: Staphylococcus aureus, read-out: MRSA MIC

Molecule | time to detection of the reporter, inner membrane (E. coli strain ML-35p; ONPG, polymixin B 8 μM, peptides 6 μM and 12 μM) [min] | time to detection of the reporter, outer membrane (E. coli strain ML-35p; nitrocefin, polymixin B at 8 μM) [s] | Human cells % hemolysis at 500 μM (human erythrocytes) [%] | Human cells H50 (human erythrocytes) | MIC [1] [µM] | MIC [2] [µM]
polymixin B | 20 | 30 |  |  |  | 
COc1cccc(OC)c1C(=O)N[C@@H]1C(=O)N2[C@@H]1SC(C)(C)[C@@H]2C(=O)O [Meticillin, reference compound] |  |  | 0.12 | nd (not detectable at the maximal concentration tested (500 μM)) | > 500 | 
CN[C@H](CC(C)C)C(=O)N[C@H]1C(=O)N[C@@H](CC(N)=O)C(=O)N[C@H]2C(=O)N[C@H]3C(=O)N[C@H](C(=O)N[C@H](C(=O)O)c4cc(O)cc(O)c4-c4cc3ccc4O)[C@H](O)c3ccc(c(Cl)c3)Oc3cc2cc(c3O[C@@H]2O[C@H](CO)[C@@H](O)[C@H](O)[C@H]2O[C@H]2C[C@](C)(N)[C@H](O)[C@H](C)O2)Oc2ccc(cc2Cl)[C@H]1O [Vancomycin, reference compound] |  |  | 0.15 | nd (not detectable at the maximal concentration tested (500 μM)) | 1 (≈ 1.45 µg/mL) | 32 (≈ 46.4 µg/mL)
